15 molecules from patent US12590062B2, “PD-1/PD-L1 inhibitors” (Gilead Sciences, Inc., priority 2017, dated 2026) can be followed below.

The target of one assay is T1, PD-1/PD-L1 interaction (Homo sapiens, UniProt Q9NZQ7).
T1 construct: expressed in transfected cells; host or cells: CHO cells (aAPC-PD-L1) co-cultured with Jurkat cells overexpressing PD-1 and an NFAT-luciferase reporter
Briefly: PD-1/PD-L1 NFAT reporter co-culture assay. In kind it is cell-based. The note with it: Jurkat PD-1 NFAT-luciferase cells co-cultured with aAPC-PD-L1 CHO cells, 6 hrs at 37° C.; read-out: EC50 NFAT Luciferase. An outline of the steps: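 Jurkat cells overexpressing PD-1 with NFAT-driven luciferase were mixed with compound in RPMI 1640/2% FBS and seeded onto overnight-plated CHO aAPC-PD-L1 cells expressing surface anti-CD3 and PD-L1. Co-culture ran 6 h at 37 °C; luminescence read with ONE-Glo; EC50 from four-parameter fit.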

The target of assay [1] is T2, interaction between the recombinant extracellular domain (ECD) of PD-1 and native cell-bound PD-L1 (Homo sapiens, UniProt Q9NZQ7).
T2 construct: expressed in transfected cells
Briefly: CHO/PD-L1 cell capture assay. Conditions: CHO cells overexpressing PD-L1, pre-incubated 1 hr with compound, captured on biotinylated Fc-PD-1 coated plates, 75 min at room temperature. The assay is classed as cell-based. The procedure, abridged:
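CHO cells stably overexpressing PD-L1 were pre-incubated 1 hr with compound, then captured 75 min at room temperature on biotinylated Fc-PD-1 ECD bound to streptavidin plates. After glutaraldehyde/Draq5 fixation-staining, captured cells were counted by high-content microscopy; EC50 from four-parameter dose-response fits.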

Another assay deals with T3, PD-L1 (Homo sapiens, UniProt Q9NZQ7).
T3 construct: determine if they can specifically dimerize the extracellular domains of PD-L1
The experiment in a line: PD-L1/PD-L1 dimerization biochemical protein-protein interaction assay (ALPHA). The assay is classed as binding. The note with it: compound-induced PD-L1 dimerization, head prints '1 nM' (0.5 nM His-tagged PD-L1 and 0.5 nM FLAG-tagged PD-L1), read-out: AC50 PDL1 Dimer Alpha 1 nM. An outline of the steps: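 ALPHA proximity assay of compound-induced dimerization of 0.5 nM His-tagged and 0.5 nM FLAG-tagged PD-L1 extracellular domains in Hepes pH 7.4 buffer, 2 h at 25 °C. Anti-His acceptor then anti-FLAG donor beads, 60 min each; AC50 from four-parameter fit.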

In general, pEC50 refers to −log10 of the EC50, conventionally taken in molar units. Usually AC50 stands for the concentration giving half of the maximal activity seen.

pEC50: −log10 of the molar value.

T3 sequence (Q9NZQ7 19-238 limits assumed): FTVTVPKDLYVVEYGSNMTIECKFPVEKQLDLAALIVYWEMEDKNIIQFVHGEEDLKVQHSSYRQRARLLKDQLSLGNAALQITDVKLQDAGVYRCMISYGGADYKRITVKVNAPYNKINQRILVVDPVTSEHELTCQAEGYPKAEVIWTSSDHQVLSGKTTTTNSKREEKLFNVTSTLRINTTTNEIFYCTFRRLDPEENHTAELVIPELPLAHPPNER
T3 sequence (Q9NZQ7 19-238 limits assumed): as above
T2 sequence (Q9NZQ7 19-290): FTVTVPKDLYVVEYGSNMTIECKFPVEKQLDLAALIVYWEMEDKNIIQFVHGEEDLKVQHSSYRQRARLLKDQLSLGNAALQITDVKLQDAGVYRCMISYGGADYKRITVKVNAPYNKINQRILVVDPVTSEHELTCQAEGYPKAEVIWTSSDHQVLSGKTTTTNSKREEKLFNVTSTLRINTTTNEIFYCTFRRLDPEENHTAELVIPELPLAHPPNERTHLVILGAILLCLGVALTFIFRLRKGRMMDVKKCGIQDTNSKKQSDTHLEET
T1 sequence (Q9NZQ7 19-290): as above

For the molecule `COc1nc(OCc2cccc(-c3cccc(COc4nc(OC)c(CN[C@H](C)C(=O)O)cc4Cl)c3C)c2C)c(Cl)cc1CN[C@H](C)C(=O)O` [Example 90, (2R,2′R)-2,2′-((((((2,2′-dimethyl-[1,1′-biphenyl]-3,3′-diyl)bis(methylene))bis(oxy))bis(5-chloro-2-methoxypyridine-6,3-diyl))bis(methylene))bis(azanediyl))dipropionic acid], the pEC50 at PD-1/PD-L1 interaction was 6.95; in assay [1] it was 6.66. In addition, the concentration at half-maximal activity (AC50) on PD-L1 was no less than 10000 nM.
In the case of `COc1nc(OCc2cccc(-c3cccc(COc4nc(OC)c(CNC5(C(=O)O)CC5)cc4Cl)c3C)c2C)c(Cl)cc1CNC1(C(=O)O)CC1` [Example 91, 1,1′-((((((2,2′-dimethyl-[1,1′-biphenyl]-3,3′-diyl)bis(methylene))bis(oxy))bis(5-chloro-2-methoxypyridine-6,3-diyl))bis(methylene))bis(azanediyl))bis(cyclopropane-1-carboxylicacid)], the negative logarithm of the EC50 (pEC50) on PD-1/PD-L1 interaction is 6.28; in assay [1] it was 6.71. Moreover, the AC50 at PD-L1 is no less than 10000 nM.
The corresponding values for `Cc1c(COc2cc(OCc3cncc(C#N)c3)c(CNC[C@@H](O)CC(=O)O)cc2Cl)cccc1-c1cccc(-c2ccc(OCCNC[C@@H](O)CC(=O)O)c([N+](=O)[O-])c2)c1C` [Example 92, (S)-4-((4-((4″-(2-(((S)-3-carboxy-2-hydroxypropyl)amino)ethoxy)-2,2′-dimethyl-3″-nitro-[1,1′:3′,1″-terphenyl]-3-yl)methoxy)-5-chloro-2-((5-cyanopyridin-3-yl)methoxy)benzyl)amino)-3-hydroxybutanoic acid] are 7.20, 7.59 and 170 nM.
The corresponding values for `Cc1c(COc2cc(OCc3cncc(C#N)c3)c(CN[C@@H](C)C(=O)O)cc2Cl)cccc1-c1cccc(-c2ccc(OCCN[C@@H](C)C(=O)O)c([N+](=O)[O-])c2)c1C` [Example 93, (4-((4″-(2-(((S)-1-carboxyethyl)amino)ethoxy)-2,2′-dimethyl-3″-nitro-[1,1′:3′,1″-terphenyl]-3-yl)methoxy)-5-chloro-2-((5-cyanopyridin-3-yl)methoxy)benzyl)-L-alanine] are 6.90, 7.35 and 145 nM.
Take `COc1nc(OCc2cccc(-c3cccc(-c4ccc(OCCNC[C@@H](O)CC(=O)O)cc4)c3C)c2C)c(Cl)cc1CNC[C@@H](O)CC(=O)O` [Example 109, (S)-4-(((6-((4″-(2-(((S)-3-carboxy-2-hydroxypropyl)amino)ethoxy)-2,2′-dimethyl-[1,1′:3′,1″-terphenyl]-3-yl)methoxy)-5-chloro-2-methoxypyridin-3-yl)methyl)amino)-3-hydroxybutanoic acid]: the pEC50 on PD-1/PD-L1 interaction was 6.18; in assay [1] it was 8.12. Further, the AC50 at PD-L1 was determined as 113 nM.
As for `COc1nc(OCc2cccc(-c3cccc(-c4ccc(OCCNC[C@H](O)CC(=O)O)cc4)c3C)c2C)c(Cl)cc1CNC[C@H](O)CC(=O)O` [Example 110, (R)-4-(((6-((4″-(2-(((R)-3-carboxy-2-hydroxypropyl)amino)ethoxy)-2,2′-dimethyl-[1,1′:3′,1″-terphenyl]-3-yl)methoxy)-5-chloro-2-methoxypyridin-3-yl)methyl)amino)-3-hydroxybutanoic acid], the pEC50 on PD-1/PD-L1 interaction was 6.45; in assay [1], 8.19. At PD-L1, the AC50 came out at 194 nM.
On to `Cc1c(COc2cc(OCc3cncc(C#N)c3)c(CNC[C@@H](O)CC(=O)O)cc2Cl)cccc1-c1cccc(-c2ccc(OCCNC[C@@H](O)CC(=O)O)cn2)c1C` [Example 112, (S)-4-((4-((3′-(5-(2-(((S)-3-carboxy-2-hydroxypropyl)amino)ethoxy)pyridin-2-yl)-2,2′-dimethyl-[1,1′-biphenyl]-3-yl)methoxy)-5-chloro-2-((5-cyanopyridin-3-yl)methoxy)benzyl)amino)-3-hydroxybutanoic acid], for which the pEC50 was 6.54 at PD-1/PD-L1 interaction and 7.46 in assay [1]. The AC50 on PD-L1 is 184 nM.
As for `COc1nc(OCc2cccc(-c3cccc(COc4nc(OC)c(CN(CCCC(N)=O)CC(=O)O)cc4Br)c3C)c2C)c(Br)cc1CN(CCCC(N)=O)CC(=O)O` [Example 117, 2,2′-((((((2,2′-dimethyl-[1,1′-biphenyl]-3,3′-diyl)bis(methylene))bis(oxy))bis(5-bromo-2-methoxypyridine-6,3-diyl))bis(methylene))bis((4-amino-4-oxobutyl)azanediyl))diacetic acid], the pEC50 was 6.11 on PD-1/PD-L1 interaction and 6.80 in assay [1]. In addition, the AC50 at PD-L1 stood at 361 nM.
The corresponding values for `Cc1c(COc2nc(OCc3cc(C#N)cc(C#N)c3)c(CN[C@@](C)(CO)C(=O)O)cc2Cl)cccc1-c1cccc(COc2nc(OCc3cc(C#N)cc(C#N)c3)c(CN[C@@](C)(CO)C(=O)O)cc2Cl)c1C` [Example 123, (2S,2′S)-2,2′-((((((2,2′-dimethyl-[1,1′-biphenyl]-3,3′-diyl)bis(methylene))bis(oxy))bis(5-chloro-2-((3,5-dicyanobenzyl)oxy)pyridine-6,3-diyl))bis(methylene))bis(azanediyl))bis(3-hydroxy-2-methylpropanoic acid)] are 7.12, 6.86 and 198 nM.
`Cc1c(COc2nc(OCc3cc(C#N)cc(C#N)c3)c(CN[C@@H](CO)C(=O)O)cc2Cl)cccc1-c1cccc(COc2nc(OCc3cc(C#N)cc(C#N)c3)c(CN[C@@H](CO)C(=O)O)cc2Cl)c1C` [Example 124, (2S,2′S)-2,2′-((((((2,2′-dimethyl-[1,1′-biphenyl]-3,3′-diyl)bis(methylene))bis(oxy))bis(5-chloro-2-((3,5-dicyanobenzyl)oxy)pyridine-6,3-diyl))bis(methylene))bis(azanediyl))bis(3-hydroxypropanoic acid)]: the pEC50 at PD-1/PD-L1 interaction was 7.13; in assay [1], 6.83. For the same molecule, the half-maximal activity concentration (AC50) on PD-L1 is no less than 10000 nM.
Consider `Cc1c(COc2nc(OC[C@H]3CCC(=O)N3)c(CNCC(=O)O)cc2Br)cccc1-c1cccc(COc2nc(OC[C@H]3CCC(=O)N3)c(CNCC(=O)O)cc2Br)c1C` [Example 129, 2,2′-((((((2,2′-dimethyl-[1,1′-biphenyl]-3,3′-diyl)bis(methylene))bis(oxy))bis(5-bromo-2-(((R)-5-oxopyrrolidin-2-yl)methoxy)pyridine-6,3-diyl))bis(methylene))bis(azanediyl))diacetic acid], for which the pEC50 on PD-1/PD-L1 interaction was 6.70; in assay [1], 6.66. In addition, at PD-L1, the concentration at half-maximal activity (AC50) is 167 nM.
Consider `Cc1c(COc2nc(OC[C@@H]3CCC(=O)N3)c(CNCC(=O)O)cc2Br)cccc1-c1cccc(COc2nc(OC[C@@H]3CCC(=O)N3)c(CNCC(=O)O)cc2Br)c1C` [Example 130, 2,2′-((((((2,2′-dimethyl-[1,1′-biphenyl]-3,3′-diyl)bis(methylene))bis(oxy))bis(5-bromo-2-(((S)-5-oxopyrrolidin-2-yl)methoxy)pyridine-6,3-diyl))bis(methylene))bis(azanediyl))diacetic acid], for which the values for the pEC50 (at PD-1/PD-L1 interaction; in assay [1]) were 6.79 and 6.91, respectively. Moreover, on PD-L1, the AC50 worked out at 237 nM.
For the molecule `Cc1c(COc2nc(OCCc3cncnc3)c(CNCC(=O)O)cc2Cl)cccc1-c1cccc(COc2nc(OCCc3cncnc3)c(CNCC(=O)O)cc2Cl)c1C` [Example 133, 2,2′-((((((2,2′-dimethyl-[1,1′-biphenyl]-3,3′-diyl)bis(methylene))bis(oxy))bis(5-chloro-2-(2-(pyrimidin-5-yl)ethoxy)pyridine-6,3-diyl))bis(methylene))bis(azanediyl))diacetic acid], the pEC50 was 6.54 at PD-1/PD-L1 interaction and 6.89 in assay [1]. Moreover, the half-maximal activity concentration (AC50) on PD-L1 amounted to 282 nM.
On to `Cc1c(COc2nc(OCCC(=O)N(C)C)c(CNC[C@@H](O)CC(=O)O)cc2Br)cccc1-c1cccc(COc2nc(OCCC(=O)N(C)C)c(CNC[C@@H](O)CC(=O)O)cc2Br)c1C` [Example 135, (3S,3′S)-4,4′-((((((2,2′-dimethyl-[1,1′-biphenyl]-3,3′-diyl)bis(methylene))bis(oxy))bis(5-bromo-2-(3-(dimethylamino)-3-oxopropoxy)pyridine-6,3-diyl))bis(methylene))bis(azanediyl))bis(3-hydroxybutanoic acid)], for which the values for the negative-log EC50 (pEC50) (at PD-1/PD-L1 interaction; in assay [1]) were 6.09 and 6.65, respectively. Besides, the AC50 on PD-L1 came out at 250 nM.
Take `Cc1c(COc2nc(OCCCCC#N)c(CNC[C@@H](O)CC(=O)O)cc2Br)cccc1-c1cccc(COc2nc(OCCCCC#N)c(CNC[C@@H](O)CC(=O)O)cc2Br)c1C` [Example 143, (3S,3′S)-4,4′-((((((2,2′-dimethyl-[1,1′-biphenyl]-3,3′-diyl)bis(methylene))bis(oxy))bis(5-bromo-2-(4-cyanobutoxy)pyridine-6,3-diyl))bis(methylene))bis(azanediyl))bis(3-hydroxybutanoic acid)]: the pEC50 at PD-1/PD-L1 interaction is 6.66; in assay [1] it was 6.53. For the same molecule, at PD-L1, the AC50 was determined as 395 nM.
